From patent publication US20230333087A1, “METHODS FOR MONITORING PATIENT RESPONSE TO TREATMENT OF RETINAL OXIDATIVE DISEASES” (BioJiva LLC, priority 2022, published 2023)

Experiments:
[1] = D-DHA content of neural retina and RPE on 0.25% D-DHA diet by mass spectrometry; type: in vivo, C57BL/6J mice; conditions: for % D-substitution: 4 weeks diet + IVT injection + 1 week
Source text: To determine the pharmacokinetics of ocular D-DHA uptake, incorporation and elimination from the neural retina and RPE/choroid/sclera, twelve-week-old C57BL/6J mice were fed a 0.5% D-DHA containing diet (0.5 g D-DHA/100 g food, Table 3) for 77 days followed by an additional 73-day wash-out phase with DHA. At 4 weeks, >55% of the DHA in the retina was D-DHA rising to >60% at 5 weeks (FIG. 6A). At similar time points, D-DHA in the RPE/choroid/sclera was >80%. […] Based on the accretion and elimination data, two-month-old mice were fed with diets containing either D-DHA or natural DHA control for 1 week, 2 weeks, 3 weeks, and 4 weeks before the IVT injection of iron and saline control (FIG. 6B). In order to better approximate typical DHA doses in human prescription omega-3 supplements (e.g. 1,500 mg/day DHA in Lovaza), the D-DHA and DHA experimental mouse diets were adjusted to 0.25% instead of 0.5% for most of the study. On a 0.25% D-DHA diet, retinal D-DHA levels exceeded 50% at five weeks (52.2±1.5% and 55% of total DHA by our GC- and LC- based MS methods, respectively), regardless of whether eyes were injected with iron or control saline (Table 3).
The extent to which D-DHA replaced natural DHA was determined by LC/MS by feeding an experimental diet containing 0.25% D-DHA for increasing periods of time. Microdissected samples of neural retina and RPE from mice fed the experimental diet for 4 weeks were analyzed after given IVT iron or control saline, and then continued on the experimental diet for another week. It was confirmed that 22.6% of DHA in the control diet consisted of isotopomers due to natural abundance ^13C and no D-DHA. Therefore, signals from the 327.2/283.2 transition represent 78.4% of the total DHA. The experimental diet contained no detectable natural DHA, but rather a distribution of deuterium-substituted DHA isotopologues (FIGS. 11A-C), which is a consequence of the D-DHA preparation method. After corrections were applied for natural abundance ^13C, it was determined that the D10-DHA isotopologue comprised 45.6% of the D-DHA species in the analyzed sample, with Ds-DHA, D9-DHA, D11-DHA, and D12-DHA isotopologues comprising the balance. Therefore, signals from the 337.2/293.2 transition represented 45.6% of the D-DHA. With these corrections applied, D-DHA isotopologues as a percentage of total DHA (i.e., D-DHA + DHA) was determined to be 59.3-60.8 % in isolated RPE, and 55.0 % in neural retina.
Adult male wild-type C57BL/6J mice (Stock No.000664, Jackson Labs, Bar Harbor, ME, USA) were housed in standard conditions under cyclic light (12 h:12 h light-dark cycle). Mice had ad libitum access to water and food. Beginning at 2 mo of age, mice were placed on the AIN93G diet described above, supplemented with 0.25% D-DHA or DHA (control diet) for 1 week, 2 weeks, 3 weeks, or 4 weeks prior to the intravitreal injection. Mice were given an intravitreal injection of 1 µl 0.5 mM ferric ammonium citrate diluted in 0.9% NaCl (saline) (MP Biomedicals LLC, Santa Ana, CA) or
Three types of mass spectrometric analysis were performed to confirm repeatability of results. In the first, lipids were extracted from retinas by a modified Folch method (CHCl3/CH3OH, 2:1). derivatized to fatty acid methyl esters (FAME), and analyzed by high resolution capillary gas chromatography and specialized chemical ionization tandem mass spectrometry. Baseline resolved DHA and D-DHA total ion signal were integrated, and the proportions of D-DHA/total DHA were calculated. The second type of mass spectrometric analysis was performed on samples of the control and experimental diets, as well as microdissected neural retina and RPE from animals on the experimental diet. Lipids were extracted and saponified, and analyzed by ESI-LC/MS on a 4000 QTrap (Sciex) operating in enhanced negative mode over an m/z range of 320 - 345 and a scan rate of 250 /sec. […]

[2] = system: carboxyethyl pyrrole (CEP); assay: Immunolabelling for CEP on cryosections; type: in vivo, C57BL/6J mice; conditions: 1 week after injection, 4 weeks diet
Description: Iron-catalyzed peroxidation of phospholipids containing DHA leads to unique carboxyethyl pyrrole (CEP) adducts not formed from any other PUFA. CEP has been detected by IHC in human AMD eyes and mouse retinas, including those from mice receiving IVT iron. To test whether D-DHA could protect against iron-induced CEP formation, mice were fed with D-DHA or DHA for 4 weeks prior to IVT injection of iron or control saline.
Cryosections were prepared at 4h and 1 week after injections. Co-labelling for CEP and rhodopsin was conducted to assess and localize CEP. […] At 1 week after injection, immunolabelling for CEP localized to RPE and infiltrating myeloid cells in IVT iron injected eyes of DHA fed mice, likely originationg from phagocytosed oxidized photoreceptor outer segments (FIG. 8B). Immunolabelling for CEP was undetected in D-DHA fed mice. […] Quantification of pixel density for CEP and L-Ft label was conducted using ImageJ software (FIGS. 8F and 8G), and quantitatively verified the results described above.
Immunofluorescence on cryosections was conducted as described previously. […] Images were acquired with an epifluorescence microscope (Nikon 80i microscope, Nikon, Tokyo, Japan), and analyzed using NIS-Elements (Nikon).

SMILES: [2H]C([2H])(/C=C\CC)/C=C\C([2H])([2H])/C=C\C([2H])([2H])/C=C\C([2H])([2H])/C=C\C([2H])([2H])/C=C\CCC(=O)OCC [D-DHA, 6,6,9,9,12,12,15,15,18,18-D10-(4Z,7Z,10Z,13Z,16Z, 19Z)-docosa 4,7,10,13,16, 19-hexaenoic acid ethyl ester]
- retinal D-DHA levels (% of total DHA) ([1]; 0.25% D-DHA diet, five weeks (4+1), neural retina, LC-based MS method): 55%
- retinal D-DHA levels (% of total DHA) ([1]; 0.25% D-DHA diet, five weeks, GC-based MS method): 52.2±1.5%
- retinal D-DHA levels ([1]; 0.25% D-DHA diet, five weeks, iron or saline injected eyes): exceeded 50%
- % D-substitution ([1]; RPE cells, D-DHA + Fe): 59.3 ± 3.9%
- % D-substitution ([1]; RPE cells, D-DHA + saline): 60.8 ± 2.1%
- D-DHA isotopologues as a percentage of total DHA ([1]; isolated RPE, 0.25% diet, 4+1 weeks, LC/MS): 59.3-60.8%
- substitution of DHA with D-DHA in the neural retina ([1]; mice fed with D-DHA for 4 weeks): > 50%
- % D-substitution ([1]; neural retina, D-DHA + Fe): 55.0 ± 3.3%
- % D-substitution ([1]; neural retina, D-DHA + saline): 55.0 ± 1.8%
- immunolabelling for CEP [2]: undetected
